{"source": "patent US10821117B2", "about": "“Estrogen therapy for brain gray matter atrophy and associated disability” (The Regents of the University of California, priority 2014, dated 2020)", "system": "relapsing remitting multiple sclerosis patients", "experiment": "Multiple Sclerosis Functional Composite (MSFC): PASAT3, 9-Hole Peg Test, 25-foot Walk Time", "format": "in vivo, human", "excerpt": "Secondary efficacy end points included the proportion of subjects with a relapse over all 24 months, a change in PASAT cognitive testing, a sustained improvement in PASAT cognitive testing (as defined by an increase of at least 3 points sustained over at least 6 months), a change in EDSS scores from baseline, disability progression (as defined by an increase in EDSS of at least 1.0 point in subjects with a baseline score of 1.0 or higher, or by an increase of at least a 1.5 points in subjects with a baseline score of 0, each sustained for at least 6 months). Tertiary end points included gray matter atrophy on MRI.\nLinear mixed effects model was carried out to compare the percent change in whole gray matter and cortical gray matter between treatment groups. For the exploratory endpoints of EDSS, PASAT, and brain volume measures, linear mixed effects model was used to compare treatment groups at 12 and 24 months. Linear mixed effects model was carried out to evaluate the association between PASAT change and percent brain volume change.\nAnother clinical disability measure with treatment effects was the timed 25-foot walk test. This test measures how many seconds it takes to walk 25 feet, with higher scores indicating worse disability. […] This beneficial effect of estriol treatment on 25-foot walking times is consistent with the beneficial effect of estriol treatment on EDSS scores since the latter is weighted toward being an indicator of ambulation.\nThere were no significant differences between groups in the Multiple Sclerosis Functional Composite (MSFC), which reflects a composite of scores including the Paced Auditory Serial Addition Test (PASAT) for cognition, the 9 hole peg test and the 25 foot walk test (Table 4). However, an interesting effect of combination treatment was observed on cognitive disability. A perfect PASAT score is 60, with scores lower than 55 serving as a continuous variable for disability. […] After 12 months of treatment, patients receiving Copaxone® plus estriol continued to have high PASAT scores to the end of study at month 24, while participants receiving placebo began to show […] PASAT scores by month 24. […] This represents repair of disability, not merely prevention of worsening. This beneficial effect on PASAT scores at 12 months in the Estriol plus GA group could not be attributed to practice effects of repeated testing since the comparison was with the Placebo plus GA group tested at identical time points.", "key": {"[1]": {"conditions": "first of two lines headed Month 24 (N = 70 / N = 60), positive value indicates worsening"}, "[2]": {"conditions": "positive value indicates improvement"}, "[3]": {"conditions": "positive value indicates worsening"}, "[4]": {"conditions": "second line headed Month 24 (N = 60 / N = 55), positive value indicates worsening"}}}
{"substance": "glatiramer acetate [Placebo + GA]", "values": [{"measurement": "PASAT score change at 12 months, within group comparison", "setting": "FIG. 7B", "value": "no change"}, {"measurement": "PASAT scores improvement compared with baseline", "setting": "by 12 months of treatment", "value": "no significant improvement"}, {"measurement": "25-foot Walk Time, Change from baseline at Month 24, Mean ± SD", "setting": "[1]", "value": "0.0 ± 0.9"}, {"measurement": "25-foot Walk Time, Change from baseline at Month 24, Median", "setting": "[1]", "value": 0.0}, {"measurement": "timed 25-foot walk test, walk time", "setting": "over the study, higher scores indicate worse disability", "value": "significantly increased"}, {"measurement": "MSFC Score, Change from baseline at Month 12, Mean ± SD", "setting": "[2]", "value": "0.06 ± 0.38"}, {"measurement": "MSFC Score, Change from baseline at Month 24, Mean ± SD", "setting": "[2]", "value": "0.09 ± 0.43"}, {"measurement": "PASAT3 score - All Patients, % change from baseline at Month 12, Mean ± SD", "setting": "[2]", "value": "0.8 ± 9.9", "unit": "%"}, {"measurement": "PASAT3 score - All Patients, % change from baseline at Month 12, Median", "setting": "[2]", "value": 0, "unit": "%"}, {"measurement": "PASAT3 score - All Patients, % change from baseline at Month 24, Mean ± SD", "setting": "[2]", "value": "2.7 ± 10.3", "unit": "%"}, {"measurement": "PASAT3 score - All Patients, % change from baseline at Month 24, Median", "setting": "[2]", "value": 0, "unit": "%"}, {"measurement": "PASAT3 score - All Patients, change from baseline at Month 12, Mean ± SD", "setting": "[2]", "value": "0.1 ± 4.5"}, {"measurement": "PASAT3 score - All Patients, change from baseline at Month 12, Median", "setting": "[2]", "value": 0}, {"measurement": "PASAT3 score - All Patients, change from baseline at Month 24, Mean ± SD", "setting": "[2]", "value": "1.1 ± 4.3"}, {"measurement": "PASAT3 score - All Patients, change from baseline at Month 24, Median", "setting": "[2]", "value": 0}, {"measurement": "PASAT3 score - Patients with baseline score <55, % change from baseline at Month 12, Mean ± SD", "setting": "[2]", "value": "4.0 ± 14.0", "unit": "%"}, {"measurement": "PASAT3 score - Patients with baseline score <55, % change from baseline at Month 12, Median", "setting": "[2]", "value": 3.8, "unit": "%"}, {"measurement": "PASAT3 score - Patients with baseline score <55, % change from baseline at Month 24, Mean ± SD", "setting": "[2]", "value": "6.9 ± 14.7", "unit": "%"}, {"measurement": "PASAT3 score - Patients with baseline score <55, % change from baseline at Month 24, Median", "setting": "[2]", "value": 9.1, "unit": "%"}, {"measurement": "PASAT3 score - Patients with baseline score <55, change from baseline at Month 12, Mean ± SD", "setting": "[2]", "value": "1.6 ± 6.0"}, {"measurement": "PASAT3 score - Patients with baseline score <55, change from baseline at Month 12, Median", "setting": "[2]", "value": 1.0}, {"measurement": "PASAT3 score - Patients with baseline score <55, change from baseline at Month 24, Mean ± SD", "setting": "[2]", "value": "3.0 ± 5.9"}, {"measurement": "PASAT3 score - Patients with baseline score <55, change from baseline at Month 24, Median", "setting": "[2]", "value": 4.0}, {"measurement": "9-Hole Peg Test, Change from baseline at Month 12, Mean ± SD", "setting": "[3]", "value": "−0.1 ± 1.8"}, {"measurement": "9-Hole Peg Test, Change from baseline at Month 12, Median", "setting": "[3]", "value": "−0.4"}, {"measurement": "9-Hole Peg Test, Change from baseline at Month 24, Mean ± SD", "setting": "[3]", "value": "−0.4 ± 1.5"}, {"measurement": "9-Hole Peg Test, Change from baseline at Month 24, Median", "setting": "[3]", "value": "−0.5"}, {"measurement": "25-foot Walk Time, Change from baseline at Month 24, Mean ± SD", "setting": "[4]", "value": "0.1 ± 1.1"}, {"measurement": "25-foot Walk Time, Change from baseline at Month 24, Median", "setting": "[4]", "value": 0.1}]}
